Patent US20040019092A1, “Non-peptide somatostatin receptor ligands” (priority 2001, published 2004)
Where “and” joins values, the source holds several entries; their conditions need not be identical. Identical values can stand only once.

How the values were obtained:
[1] = test system: SRIF receptors ([^125I]SRIF-28 binding sites); test: Ex-vivo [^125I]Tyr^26-SRIF-28 binding in rat cortex and hippocampus after s.c. dosing; parameters: species or system Wistar rats; conditions: 60 min
Experimental: Ex-vivo binding was used to determine to whether compound 14 (a potent sst2 receptor selective hydantoin) when applied peripherally to rates can cross the blood brain barrier, as robust behavioral models are not fully characterized and blood-brain penetration models are not routinely available. […] The rats were given saline or drug sub-cutaneously at the indicated dose (in saline) and killed 60 minutes after application with CO2. The brain was removed and placed on ice; the cerebral cortex and hippocampus were dissected out and weighted. […] The homogenate was stored on ice and used immediately or deep frozen (-70° C.) until used (1-3 days). […] The tables list the effects of compound 14 on cortex (Table 6) and hippocampus (Table 7) binding at the doses and times indicated (see also FIGS. 3 and 4). TB=total binding, NS=non specific binding, SB=specific binding. The values are indicated in cpm for individual animals, mean, n=number of animals, sem=standard error of the mean; percent=% specific binding remaining following treatment compared to controls.

[2] = In vitro blood distribution; assay type: in vitro ADME; conditions: rat blood, 5-5000 ng/mL
Experimental: (§1) In vitro blood distribution and plasma protein binding. For blood distribution studies, fresh, heparinized rat blood (n=3) was spiked with [^14C]-42 to achieve the final concentrations of 5, 50, 500 and 5000 ng/mL. After a 30-minutes incubation at 4° C., 22° C. and 37° C., the samples were centrifuged (1600×g, 10 minutes, at the incubation temperature) to get plasma. The fraction free of 42 in plasma of rat and human was determined by equilibrium dialysis. Phosphate buffer was spiked with [^14C]-42 (50, 500, 5000 ng/mL) and dialyzed versus blank rat and human plasma at 37° C. for 2 hours. The radioactivity was determined in spiked blood samples, in plasma obtained after centrifugation and in both compartments after dialysis.

[3] = in vivo; conditions: male, Wistar, rat
Experimental: The pharmacokinetic study was performed with 3 male Wistar rats (BRL) weighing 300-330 g with a one week interval between administration phases. The day before the first dosing, the rats underwent surgical implantation of an in-dwelling cannula; the right femoral artery was cannulated and the tube was passed subcutaneously to emerge at the back of the neck. The animals were individually housed in metabolism cages and fasted overnight before administrations.
The dose solution was administered (5 mL/kg) by gastric incubation.
The dose solution was administered (2 mL/kg) into the surgically exposed femoral vein.
During the study, 18 blood samples (100-500 μL) were taken, up to 48 hours post-dose from the cannulated femoral artery representing a total volume of 5.7 mL blood. The loss of blood was compensated by infusion of 6 times 1 mL of blood from donor rats. Urine samples were collected up to 48 hours post-dose. For the analysis of the in vivo brain distribution, 3 male rats were intravenously dosed (1 mg/kg or 72 μCi/kg) as described above. At 0.5 hours after administration, the rats were sacrificed; blood and brain were collected.
Determination of radioactivity in blood, plasma, brain homogenates and in urine, was carried out by direct liquid scintillation counting. Prior to radiometric determination, blood and tissue were solubilized in Solutron (Kontron Instruments, Zurich, Switzerland). After adding 10 mL of scintillation cocktail (Lumasafe, Lumac, Landgraaf, the Netherlands), all samples were counted in Tri-carb liquid scintillation analyzer (Canberra Packard, IL).
The procedure involved the addition of 5 μg of non-radiolabeled 42 to each blood sample as an internal standard. After adding 1 mL of acetonitrile, the sample was mixed with a Polytron mixer and centrifuged (234000×g, 30 minutes) in a Beckman centrifuge (Model TL100). The supernatant was evaporated in a vacuum centrifuge (Univapo 150H, Zivy). The residue was reconstituted in 250 μL of mobile phase-water (3:1 v/v) and centrifuged (3000×g, 60 s). The supernatant (200 μL) was injected onto HPLC. […] Compound 42 was separated from potential metabolites and endogenous compounds on a RP18 endcapped Superspher column, 125 mm×4 mm (Merck) at 45° C. The mobile phase consisted of 0.1% tetramethylammonium hydroxide—acetonitrile (500:500 v/v). The flow rate was 1 mL/min; the effluent was monitored at 260 nm. […] The limit of quantification was 0.3 ng/mL.
The peeling method was applied to describe the data by a compartment model approach, characterized by the following equation: C═C1*e^λ1−t+C2*e^λ2−t. The initial estimates of C1, λ1, C2, λ2 were taken to generate the best fit using the computer software ELSFIT. The estimates for half-lives were calculated as T1/2λi=ln2/λi.

[4] = Urinary excretion and metabolite patterns in blood and urine; assay type: in vivo, rat; conditions: for Urinary excretion of parent drug: underestimates (urine lost)
Experimental: Metabolite patters were determined in blood extracts and in urine. Blood was pooled from the 3 intravenously dosed rats of the pharmacokinetic study and from 3 additional rats treated in the same way. Urine was obtained from the animals of the pharmacokinetic study.
Between 0.3 and 0.6 mL of pooled diluted blood were spiked with 10-20 μg unlabeled compound 42-ch, extracted with 10 mL of methanol (HPLC grade, Rathburn) by sonication and centrifuged. The pellet was extracted once more in the same way. The two supernatants were combined and evaporated under reduced pressure at 35° C. on a rotary evaporator. The residue was transferred into a smaller vial by means of methanol and water, evaporated under a stream of nitrogen and taken up in 80 μl methanol and 320 μl water or in 120 μl methanol and 280 μl water by sonication. The suspension was centrifuged and a 300 μl aliquot of the supernatant was injected onto the HPLC column. The extraction yield of radioactivity was only 45±12% (mean ISD).
To urine samples, acetonitrile (˜5% v/v), TFA (to obtain a pH of ˜3) and unlabeled compound 42-ch (˜4 μg per volume analyzed) were added. The mixtures were centrifuged and 1-2 mL of supernatant were injected onto the HPLC column.
The chromatography was performed using HP 1090 liquid chromatograph (Hewlett-Packard). The radioactivity of the column eluate was measured by liquid scintillation counting either off-line or on-line using a Berthold LB 507A radioactivity monitor. The samples were chromatographed on a reversed-phase column (Nucleosil 100, C18AB, 250×4.6 mm, 5 μm particle size, Macherey-Nagel) protected by a corresponding 8×4 mm precolumn. The column temperature was 40° C. The components were eluted with a gradient of 0.02% v/v trifluoroacetic acid (TFA, Pierce) in water (mobile phase A, pH 2.8) versus acetonitrile (HPLC grade S, Rathburn; mobile phase B). The proportion of solvent B was kept at 5% up to 5 minutes after injection and was then increased in linear segments to 40% at 110 minutes and 100% at 120 minutes where it was kept for another 10 minutes. The total flow rate was 1 mL/min. The unlabeled parent drug, added as a retention time marker, was monitored by UV detection at 216 nm.

[5] = Plasma protein binding, equilibrium dialysis, human plasma; assay type: in vitro ADME; conditions: 50-5000 ng/mL, 37° C.
Experimental: as §1

[6] = cortex, SRIF-28 +MgCl-2, 0.3 mg/kg s.c.
[7] = cortex, SRIF-28 +MgCl-2, 1 mg/kg s.c.
[8] = cortex, SRIF-28 +MgCl-2, 3 mg/kg s.c.
[9] = cortex, SRIF-28 +MgCl-2, 10 mg/kg s.c.
[10] = hippocampus, SRIF-28 +MgCl-2, 0.3 mg/kg s.c.
[11] = hippocampus, SRIF-28 +MgCl-2, 1 mg/kg s.c.
[12] = hippocampus, SRIF-28 +MgCl-2, 3 mg/kg s.c.
[13] = hippocampus, SRIF-28 +MgCl-2, 10 mg/kg s.c.

Cc1cccc2c(CC3C(=O)N(CCCCCN)C(=O)N3S(=O)(=O)c3ccc(Oc4ccc(O)cc4)c(C#N)c3)c[nH]c12 (stereo not drawn) [Compound 14]
NS non specific binding, individual animals [1, 6]: 3058 cpm and 2970 cpm and 3027 cpm | NS non specific binding, mean [1, 6]: 3018 cpm | SB specific binding, individual animals [1, 6]: 24318 cpm and 23238 cpm and 23669 cpm | SB specific binding, mean [1, 6]: 23742 cpm | TB total binding, individual animals [1, 6]: 27376 cpm and 26208 cpm and 26696 cpm | TB total binding, mean [1, 6]: 26760 cpm | percent specific binding remaining compared to controls [1, 6]: 89% | NS non specific binding, individual animals [1, 7]: 2915 cpm and 3036 cpm and 3191 cpm | NS non specific binding, mean [1, 7]: 3047 cpm | SB specific binding, individual animals [1, 7]: 21767 cpm and 23930 cpm and 23905 cpm | SB specific binding, mean [1, 7]: 23201 cpm | TB total binding, individual animals [1, 7]: 24682 cpm and 26966 cpm and 27096 cpm | TB total binding, mean [1, 7]: 26248 cpm | percent specific binding remaining compared to controls [1, 7]: 95% | NS non specific binding, individual animals [1, 8]: 2980 cpm and 3016 cpm and 3116 cpm | NS non specific binding, mean [1, 8]: 3037 cpm | SB specific binding, individual animals [1, 8]: 22191 cpm and 21992 cpm and 22578 cpm | SB specific binding, mean [1, 8]: 22254 cpm | TB total binding, individual animals [1, 8]: 25171 cpm and 25008 cpm and 25694 cpm | TB total binding, mean [1, 8]: 25291 cpm | percent specific binding remaining compared to controls [1, 8]: 91% | NS non specific binding, individual animals [1, 9]: 3070 cpm and 3015 cpm and 3305 cpm | NS non specific binding, mean [1, 9]: 3130 cpm | SB specific binding, individual animals [1, 9]: 22730 cpm and 21395 cpm and 23605 cpm | SB specific binding, mean [1, 9]: 22577 cpm | TB total binding, individual animals [1, 9]: 25800 cpm and 24410 cpm and 26910 cpm | TB total binding, mean [1, 9]: 25707 cpm | percent specific binding remaining compared to controls [1, 9]: 93% | NS non specific binding, individual animals [1, 10]: 2936 cpm and 2874 cpm and 2753 cpm | NS non specific binding, mean [1, 10]: 2854 cpm | SB specific binding, individual animals [1, 10]: 18219 cpm and 18124 cpm and 19319 cpm | SB specific binding, mean [1, 10]: 18554 cpm | TB total binding, individual animals [1, 10]: 21155 cpm and 20998 cpm and 22072 cpm | TB total binding, mean [1, 10]: 21408 cpm | percent specific binding remaining compared to controls [1, 10]: 112% | NS non specific binding, individual animals [1, 11]: 2754 cpm and 2528 cpm and 2621 cpm | NS non specific binding, mean [1, 11]: 2634 cpm | SB specific binding, individual animals [1, 11]: 17055 cpm and 18516 cpm and 18145 cpm | SB specific binding, mean [1, 11]: 17905 cpm | TB total binding, individual animals [1, 11]: 19809 cpm and 21044 cpm and 20766 cpm | TB total binding, mean [1, 11]: 20540 cpm | percent specific binding remaining compared to controls [1, 11]: 108% | NS non specific binding, individual animals [1, 12]: 2532 cpm and 2841 cpm and 2786 cpm | NS non specific binding, mean [1, 12]: 2720 cpm | SB specific binding, individual animals [1, 12]: 15758 cpm and 14336 cpm and 15162 cpm | SB specific binding, mean [1, 12]: 15085 cpm | TB total binding, individual animals [1, 12]: 18290 cpm and 17117 cpm and 17948 cpm | TB total binding, mean [1, 12]: 17805 cpm | percent specific binding remaining compared to controls [1, 12]: 91% | NS non specific binding, individual animals [1, 13]: 2587 cpm and 2850 cpm and 2711 cpm | NS non specific binding, mean [1, 13]: 2716 cpm | SB specific binding, individual animals [1, 13]: 15809 cpm and 14387 cpm and 13715 cpm | SB specific binding, mean [1, 13]: 14637 cpm | TB total binding, individual animals [1, 13]: 18398 cpm and 17237 cpm and 18426 cpm | TB total binding, mean [1, 13]: 17353 cpm | percent specific binding remaining compared to controls [1, 13]: 88%

N#Cc1cc(S(=O)(=O)N2C(=O)N(CCCCCN)C(=O)C2Cc2c[nH]c3ccccc23)ccc1Oc1ccc(N)cc1 (stereo not drawn) [Compound 42]
proportion present in plasma at 4° C. ([2]; 4° C.): 69-92% | proportion present in plasma at 37° C. ([2]; 37° C.): 40-60% | bioavailability [3]: 1.3 ± 0.9% | Vd ([3]; iv, 1 mg/kg): 20 L/kg | clearance ([3]; iv, 1 mg/kg): 4.5 mL/min | half-life ([3]; iv, first half-life t1/2λ1): 27 min | half-life ([3]; iv, terminal half-life t1/2): 1440 min | Urinary excretion of parent drug ([4]; 0-48 hours after single intravenous 1 mg/kg [^14C]-42, individual animals, 1 mg/kg): 0.96 % of dose and 1.98 % of dose and 1.97 % of dose | Urinary excretion of parent drug ([4]; 0-48 hours after single intravenous 1 mg/kg [^14C]-42, mean of 3 animals): 1.64 % of dose | Urinary excretion of parent drug ([4]; 0-48 hours after single oral 10 mg/kg [^14C]-42, individual animals, 10 mg/kg): 0.001 % of dose and 0.053 % of dose and 0.114 % of dose | Urinary excretion of parent drug ([4]; 0-48 hours after single oral 10 mg/kg [^14C]-42, mean of 3 animals): 0.056 % of dose | drug-related material in blood ([4]; rat blood extracts after intravenous dosing): mainly of unchanged drug | fraction free in human plasma [5]: 15-23%
